Some test systems named below: UO-31; 786-0; IGROV-1; DLD-1; SK-MEL-5; SK-MEL-28; MOLT-4; SF-295; HCT-15; SK-MEL-2; COLO 205; HCC 2998; ACHN; SNB-75; RXF 393.
Experiment in all cases: growth of human tumour cells (NCI), 48 h

Each structure is given as a SMILES string.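 96-well plates; 48 h exposure; 5 concentrations. Endpoints by linear interpolation between flanking doses. Not reached: highest tested concentration assigned. At the GI50, growth is halved.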 Activity calls are given as the source filed them. Rule as the data show it: active = GI50 up to about 1.1 µM and inactive = higher.

As to `Cc1cc(=O)oc2c(C)c(OCCCOc3ccc4c(C)cc(=O)oc4c3C)ccc12`, the GI50 in the assay on UO-31, in the assay on 786-0, in the assay with IGROV-1, in the assay on DLD-1, in the assay on SK-MEL-5 and in the assay with SK-MEL-28 was > 100 µM (inactive) in each case. Moreover, the GI50 in the assay on MOLT-4 was > 100 µM (inactive); with SF-295, > 100 µM (inactive); with HCT-15, > 100 µM; with SK-MEL-2 it was > 100 µM (inactive).

As for `O=C1C2=C(c3ccccc31)C(c1ccccc1Cl)NC(S)=N2` (configuration not stated), the GI50 with COLO 205 is 69.3 µM (inactive); in the assay with HCC 2998, > 100 µM (inactive); with UO-31, 30.6 µM (inactive); with 786-0, > 100 µM (inactive); in the assay on IGROV-1, 56.8 µM (inactive); in the assay on DLD-1, 64.9 µM (inactive). For the same compound, the GI50 in the assay on SK-MEL-5 is 20.2 µM (inactive); in the assay on SK-MEL-28, 55.5 µM (inactive); in the assay with MOLT-4, 31.8 µM (inactive); in the assay on ACHN it was 41.8 µM (inactive); in the assay on SF-295, 51.1 µM (inactive); in the assay on HCT-15, 59.2 µM. Also, the GI50 with SK-MEL-2 was 29.1 µM (inactive); with SNB-75, 26.9 µM (inactive).

In the case of `CNc1ccc(/C=C2\C=Cc3ccccc32)cc1`, the GI50 in the assay with COLO 205 is 18.4 µM (inactive); in the assay on HCC 2998, 16.6 µM (inactive); in the assay with UO-31, 10.2 µM (inactive); in the assay with 786-0, 31.5 µM (inactive); in the assay on IGROV-1, 24.2 µM (inactive); in the assay on DLD-1, 31.3 µM (inactive). For the same compound, the GI50 with SK-MEL-5 is 26.5 µM (inactive); with SK-MEL-28 it was 88.5 µM (inactive); with MOLT-4 it was 41.9 µM (inactive); in the assay on RXF 393, 20.8 µM (inactive); with ACHN, 20.3 µM (inactive); with SF-295 it was 31.3 µM (inactive). The GI50 was 20.9 µM with HCT-15 and 18.8 µM (inactive) with SK-MEL-2.

As to `C=C1C(=O)OC2/C=C(\C=O)CC/C=C(\C)C(O)C[C@@H]12` (some centres not stated), the GI50 is 3.94 µM (inactive) in the assay with COLO 205; 17.8 µM (inactive) in the assay with HCC 2998; 13.3 µM (inactive) in the assay on UO-31; 2.85 µM (inactive) in the assay on 786-0; 17.5 µM (inactive) with IGROV-1; 2.39 µM (inactive) with DLD-1. Moreover, the GI50 was 9.27 µM (inactive) in the assay with SK-MEL-5; 4.42 µM (inactive) in the assay on SK-MEL-28; 2.77 µM (inactive) in the assay on MOLT-4; 2.84 µM (inactive) in the assay with RXF 393; 7.35 µM (inactive) in the assay on ACHN; 13.7 µM (inactive) with SF-295. The GI50 with HCT-15 was 3.65 µM; with SK-MEL-2, 10.5 µM (inactive); in the assay on SNB-75, 15.1 µM (inactive).

As for `COC(=O)c1oc([N+](=O)[O-])c(-c2ccccc2)c1-c1ccccc1`, the GI50 in the assay with COLO 205 was 37.7 µM (inactive); in the assay with HCC 2998 it was > 100 µM (inactive); with UO-31 it was > 100 µM (inactive); in the assay with 786-0, > 100 µM (inactive); in the assay on IGROV-1, > 100 µM (inactive); in the assay with DLD-1, 76.2 µM (inactive). Moreover, the GI50 in the assay on SK-MEL-5 was 48.3 µM (inactive); in the assay with SK-MEL-28, > 100 µM (inactive); in the assay with MOLT-4 it was 33.6 µM (inactive); in the assay on ACHN, > 100 µM (inactive); with SF-295, > 100 µM (inactive); in the assay on SK-MEL-2, > 100 µM (inactive). Besides, the GI50 with SNB-75 was > 100 µM (inactive).

Regarding `CC1=CC(=O)C(C)(C2=NC(C)(C)CO2)c2ccccc21` (configuration not stated), the GI50 in the assay with COLO 205, in the assay with UO-31, in the assay with 786-0, in the assay with IGROV-1, in the assay on DLD-1 and in the assay with SK-MEL-5 was > 100 µM (inactive) throughout. Moreover, the GI50 was > 100 µM (inactive) in the assay on SK-MEL-28; > 100 µM (inactive) in the assay with MOLT-4; > 100 µM (inactive) with RXF 393; > 100 µM (inactive) in the assay with ACHN; > 100 µM (inactive) in the assay on SF-295; > 100 µM in the assay on HCT-15. Also, the GI50 in the assay on SK-MEL-2 and in the assay with SNB-75 was > 100 µM (inactive) each time.

For the compound `CCOC(=O)C(=O)Nc1c(CC)cccc1C(C)C`, the GI50 with COLO 205, in the assay on HCC 2998, in the assay on UO-31, with 786-0, in the assay with IGROV-1 and in the assay on DLD-1 was > 100 µM (inactive) each time. Also, the GI50 with SK-MEL-28 is > 100 µM (inactive); with RXF 393, > 100 µM (inactive); in the assay on ACHN it was > 100 µM (inactive); with SF-295, > 100 µM (inactive); in the assay on HCT-15, > 100 µM; in the assay with SK-MEL-2, > 100 µM (inactive). In addition, the GI50 in the assay with SNB-75 is > 100 µM (inactive).

Regarding `N#Cc1c(N)c(C(=O)O)nn(-c2cccc(C(F)(F)F)c2)c1=O`, the GI50 in the assay with COLO 205 was > 100 µM (inactive); in the assay with UO-31 it was 76.7 µM (inactive); in the assay on 786-0 it was > 100 µM (inactive); in the assay with IGROV-1, > 100 µM (inactive); in the assay on DLD-1 it was 70.3 µM (inactive); in the assay with SK-MEL-5, 53 µM (inactive). In addition, the GI50 in the assay on SK-MEL-28 is > 100 µM (inactive); in the assay on MOLT-4 it was > 100 µM (inactive); with RXF 393 it was 52.5 µM (inactive); in the assay with ACHN, > 100 µM (inactive); with SF-295 it was > 100 µM (inactive); in the assay with HCT-15, 95.1 µM. Also, the GI50 in the assay with SK-MEL-2 is > 100 µM (inactive); in the assay with SNB-75 it was 14 µM (inactive).

For `Clc1ccc2cccc3c2c1C1OC3c2ccccc21` (configuration not stated), the GI50 in the assay on COLO 205, with HCC 2998, in the assay on UO-31, in the assay on 786-0, in the assay with IGROV-1 and in the assay with DLD-1 was > 100 µM (inactive) each time. The GI50 is > 100 µM (inactive) with SK-MEL-28; > 100 µM (inactive) with MOLT-4; 55.5 µM (inactive) with RXF 393; > 100 µM (inactive) in the assay with ACHN; > 100 µM (inactive) in the assay on SF-295; > 100 µM (inactive) with SK-MEL-2. The GI50 in the assay with SNB-75 was 99.8 µM (inactive).

For the compound `CC(C)(C)OC(=O)C1=C(O)C(C(=O)OC(C)(C)C)C23CCCCC12C(C(=O)OC(C)(C)C)C(O)=C3C(=O)OC(C)(C)C` (configuration not stated), the GI50 with COLO 205, with HCC 2998, with UO-31, with 786-0, in the assay on IGROV-1 and in the assay on DLD-1 was > 100 µM (inactive) in each case. Moreover, the GI50 in the assay on SK-MEL-5 is > 100 µM (inactive); in the assay with MOLT-4, > 100 µM (inactive); in the assay with RXF 393, > 100 µM (inactive); with ACHN, > 100 µM (inactive); in the assay on SF-295, > 100 µM (inactive); in the assay with HCT-15 it was > 100 µM. The GI50 with SK-MEL-2 and in the assay on SNB-75 was > 100 µM (inactive) throughout.

As to `COC(=O)N/N=C(\c1nc2ccc(Cl)cc2nc1O)C(O)c1ccc([N+](=O)[O-])cc1` (configuration not stated), the GI50 in the assay on COLO 205, in the assay with HCC 2998, with UO-31, in the assay with 786-0, with IGROV-1 and with DLD-1 was > 100 µM (inactive) in each case. The GI50 in the assay on SK-MEL-5 is > 100 µM (inactive); with SK-MEL-28, > 100 µM (inactive); in the assay on MOLT-4, 98.4 µM (inactive); in the assay with RXF 393, > 100 µM (inactive); in the assay on SF-295, > 100 µM (inactive); with HCT-15, > 100 µM. Further, in the assay with SNB-75, the GI50 was > 100 µM (inactive).

For the origin of these results see ChEMBL document CHEMBL1201862, “PubChem BioAssay data set” (2004).
